Laboratory results taken from ChEMBL document CHEMBL1201862, “PubChem BioAssay data set” (2004).
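Values below derive from 48-hour exposures of cells grown in 96-well plates, with endpoints linearly interpolated between the two concentrations bracketing the appropriate inhibition level. Abbreviation: GI50, concentration required for 50% inhibition of growth.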 Activity calls are given as the source filed them. Cut-off read from the data, not from the text of the source: active = GI50 up to about 1.1 µM and inactive = higher.

Assays:
Assay in all cases: DTP human tumour cell line panel, 48 h
[1] = test system: 786-0
[2] = test system: A498
[3] = test system: BT-549
[4] = test system: DU-145
[5] = test system: EKVX
[6] = test system: HCT-15
[7] = test system: HL-60
[8] = test system: LOX IMVI
[9] = test system: M14
[10] = test system: MCF7
[11] = test system: OVCAR-4
[12] = test system: SF-268
[13] = test system: SK-MEL-2
[14] = test system: SNB-75
[15] = test system: UACC-62
[16] = test system: MOLT-4
[17] = test system: SR

SMILES	GI50 [1]	GI50 [2]	GI50 [3]	GI50 [4]	GI50 [5]	GI50 [6] [µM]	GI50 [7]	GI50 [8]	GI50 [9]	GI50 [10]	GI50 [11]	GI50 [12]	GI50 [13]	GI50 [14]	GI50 [15]	GI50 [16]	GI50 [17]
O=C(Nc1cccc2ccccc12)c1ccccc1	> 100 µM (inactive)	> 100 µM (inactive)	> 100 µM (inactive)	> 100 µM (inactive)	> 100 µM (inactive)	98.2	> 100 µM (inactive)	> 100 µM (inactive)	> 100 µM (inactive)	8.89 µM (inactive)	24.5 µM (inactive)	> 100 µM (inactive)	91.2 µM (inactive)	21.8 µM (inactive)	86.7 µM (inactive)	–	–
O=C(CCC(=O)CC(O)(C(F)(F)F)C(F)(F)F)CC(O)(C(F)(F)F)C(F)(F)F	46.1 µM (inactive)	0.151 µM (active)	–	53.1 µM (inactive)	35 µM (inactive)	35	33.7 µM (inactive)	–	41.2 µM (inactive)	37.8 µM (inactive)	33 µM (inactive)	71.6 µM (inactive)	–	82.8 µM (inactive)	31.7 µM (inactive)	41.3 µM (inactive)	47.9 µM (inactive)
OCC(O)C1OC2CC1Nc1ccccc1N2 (stereo not given)	> 100 µM (inactive)	8.85 µM (inactive)	–	> 100 µM (inactive)	> 100 µM (inactive)	> 100	> 100 µM (inactive)	> 100 µM (inactive)	–	–	–	> 100 µM (inactive)	> 100 µM (inactive)	> 100 µM (inactive)	> 100 µM (inactive)	> 100 µM (inactive)	> 10 µM (inactive)
COc1ncnc2c1cnn2Cc1cn(CCCCO)nn1	> 100 µM (inactive)	> 100 µM (inactive)	> 100 µM (inactive)	> 100 µM (inactive)	> 100 µM (inactive)	> 100	–	> 100 µM (inactive)	> 100 µM (inactive)	> 100 µM (inactive)	> 100 µM (inactive)	> 100 µM (inactive)	> 100 µM (inactive)	–	> 100 µM (inactive)	> 100 µM (inactive)	> 100 µM (inactive)
CCOC(=O)C1C(c2ccccc2)C2(C#N)C(=N)OC1(C)C2(C#N)C#N (stereo not given)	13.6 µM (inactive)	32.7 µM (inactive)	–	30.6 µM (inactive)	21.1 µM (inactive)	37.3	20.7 µM (inactive)	16 µM (inactive)	40.6 µM (inactive)	46.8 µM (inactive)	–	22.4 µM (inactive)	20.7 µM (inactive)	1.51 µM (inactive)	27 µM (inactive)	21.1 µM (inactive)	–
CN(C)C1(N(C)C)Oc2c(c(=O)n(C)c(=O)n2C)C(c2ccc(Br)cc2)C1(F)F (stereo not given)	> 100 µM (inactive)	> 100 µM (inactive)	> 100 µM (inactive)	> 100 µM (inactive)	> 100 µM (inactive)	> 100	–	> 100 µM (inactive)	> 100 µM (inactive)	> 100 µM (inactive)	> 100 µM (inactive)	> 100 µM (inactive)	> 100 µM (inactive)	> 100 µM (inactive)	> 100 µM (inactive)	> 100 µM (inactive)	–
Cn1nc2ccc3nccc(N4CCN(CCO)CC4)c3c2n1	> 100 µM (inactive)	> 100 µM (inactive)	> 100 µM (inactive)	> 100 µM (inactive)	–	4.02	–	0.371 µM (active)	> 100 µM (inactive)	> 100 µM (inactive)	> 100 µM (inactive)	> 100 µM (inactive)	> 100 µM (inactive)	> 100 µM (inactive)	> 100 µM (inactive)	31.7 µM (inactive)	–
CC1Cc2cc(O)c(O)cc2-c2cc(O)c(O)cc2CC1C (stereo not given)	14.3 µM (inactive)	25 µM (inactive)	–	36.3 µM (inactive)	18.5 µM (inactive)	9.29	–	10.2 µM (inactive)	11.5 µM (inactive)	12.1 µM (inactive)	15.6 µM (inactive)	25.9 µM (inactive)	4.32 µM (inactive)	> 100 µM (inactive)	6.07 µM (inactive)	14 µM (inactive)	4.85 µM (inactive)
COC(=O)C1CCC(=O)N1C(c1cc(OC)c(OC)c(OC)c1)c1cc(OC)c(OC)c(OC)c1 (stereo not given)	> 100 µM (inactive)	> 100 µM (inactive)	–	> 100 µM (inactive)	> 100 µM (inactive)	> 100	> 100 µM (inactive)	> 100 µM (inactive)	> 100 µM (inactive)	> 100 µM (inactive)	–	> 100 µM (inactive)	> 100 µM (inactive)	> 100 µM (inactive)	> 100 µM (inactive)	> 100 µM (inactive)	> 100 µM (inactive)
